Measured values taken from patent US11932601B2, “Immunoregulatory agents” (FLEXUS BIOSCIENCES, INC., priority 2014, dated 2024).

Molecular target: T1, human IDO1 (Homo sapiens, UniProt P14902)
T1 construct: expressed in transfected cells
Assay: HEK293 cells stably expressing human IDO1, IDO inhibition assay (kynurenine, Ehrlich reagent, absorbance 490 nm)
Assay type: cell-based
Conditions: 20 hours incubation, 500 nM reference standard = 100% inhibition, read-out: HEK Human IDO-1 Biological Activity (IC50)
Procedure: HEK293 cells were transfected with a pCDNA-based mammalian expression vector harboring human IDO1 cDNA (NM 002164.2) by electroporation. They were cultured in medium (DMEM with 10% FBS) containing 1 mg/ml G418 for two weeks. Clones of HEK293 cells that stably expressed human IDO1 protein were selected and expanded for IDO inhibition assay.
The human IDO1/HEK293 cells were seeded at 10,000 cells per 50 μL per well with RPMI/phenol red free media contains 10% FBS in a 384-well black wall clear bottom tissue culture plate (Matrix Technologies LLC) 100 nL of certain concentration of compound was then added to each well using ECHO liquid handling systems. The cells were incubated for 20 hours in 37° C. incubator with 5% CO2.
The compound treatments were stopped by adding Trichloroacetic Acid (Sigma-Aldrich) to a final concentration at 0.2%. The cell plate was further incubated at 50° C. for 30 minute. The equal volume supernatant […] and 0.2% (w/v) Ehrlich reagent (4-dimethylaminobenzaldehyde, Sigma-Aldrich) in glacial acetic acid were mixed in a new clear bottom 384-well plate. This plate was then incubated at room temperature for 30 minute. The absorbance at 490 nm was measured on Envision plate reader.

T1 sequence (P14902 whole entry): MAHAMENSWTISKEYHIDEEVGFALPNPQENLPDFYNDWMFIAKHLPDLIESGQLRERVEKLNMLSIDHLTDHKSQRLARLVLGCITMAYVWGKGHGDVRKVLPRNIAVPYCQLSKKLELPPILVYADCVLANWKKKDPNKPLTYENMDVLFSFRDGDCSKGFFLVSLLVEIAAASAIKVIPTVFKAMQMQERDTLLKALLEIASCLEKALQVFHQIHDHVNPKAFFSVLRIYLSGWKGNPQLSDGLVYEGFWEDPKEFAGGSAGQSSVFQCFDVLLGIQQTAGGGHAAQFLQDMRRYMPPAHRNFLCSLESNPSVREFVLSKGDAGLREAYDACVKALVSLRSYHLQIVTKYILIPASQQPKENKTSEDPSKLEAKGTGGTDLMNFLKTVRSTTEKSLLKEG

Row | Structure (SMILES) | IC50 [nM]
1 | Cc1cc(C2CCC(C(C)C(=O)Nc3ccc(Cl)cc3)CC2)ccn1 (single isomer, unassigned) [Example 309a, N-(4-chlorophenyl)-2-(4-(2-methylpyridin-4-yl)cyclohexyl) propanamide] | > 250
2 | Cc1cc(C2CCC(C(C)C(=O)Nc3ccc(Cl)cc3)CC2)ccn1 (single isomer, unassigned) [Example 309b, N-(4-chlorophenyl)-2-(4-(2-methylpyridin-4-yl)cyclohexyl) propanamide] | < 50
3 | Cc1cc(C2CCC(C(C)C(=O)Nc3ccc(Cl)cc3)CC2)ccn1 (single isomer, unassigned) [Example 309c, N-(4-chlorophenyl)-2-(4-(2-methylpyridin-4-yl)cyclohexyl) propanamide] | > 250
4 | Cc1cc(C2CCC(C(C)C(=O)Nc3ccc(Cl)cc3)CC2)ccn1 (single isomer, unassigned) [Example 309d, N-(4-chlorophenyl)-2-(4-(2-methylpyridin-4-yl)cyclohexyl) propanamide] | < 50
5 | Cc1c(C2CCC(C(C)C(=O)Nc3ccc(Cl)cc3)CC2)ccnc1F (single isomer, unassigned) [Example 310a, (+/−)N-(4-chlorophenyl)-2-(4-(2-fluoro-3-methylpyridin-4-yl)cyclohexyl) propanamide] | < 50
6 | Cc1c(C2CCC(C(C)C(=O)Nc3ccc(Cl)cc3)CC2)ccnc1F (single isomer, unassigned) [Example 310b, (+/-)N-(4-chlorophenyl)-2-(4-(2-fluoro-3-methylpyridin-4-yl)cyclohexyl) propanamide] | < 50
7 | Cc1c(C2CCC(C(C)C(=O)Nc3ccc(Cl)cc3)CC2)ccnc1F (single isomer, unassigned) [Example 310c, N-(4-chlorophenyl)-2-(4-(2-fluoro-3-methylpyridin-4-yl)cyclohexyl) propanamide] | < 50
8 | Cc1c(C2CCC(C(C)C(=O)Nc3ccc(Cl)cc3)CC2)ccnc1F (single isomer, unassigned) [Example 310d, N-(4-chlorophenyl)-2-(4-(2-fluoro-3-methylpyridin-4-yl)cyclohexyl) propanamide] | < 50
9 | Cc1c(C2CCC(C(C)C(=O)Nc3ccc(Cl)cc3)CC2)ccnc1F (single isomer, unassigned) [Example 310e, N-(4-chlorophenyl)-2-(4-(2-fluoro-3-methylpyridin-4-yl)cyclohexyl) propanamide] | < 50
10 | Cc1c(C2CCC(C(C)C(=O)Nc3ccc(Cl)cc3)CC2)ccnc1F (single isomer, unassigned) [Example 310f, N-(4-chlorophenyl)-2-(4-(2-fluoro-3-methylpyridin-4-yl)cyclohexyl) propanamide] | < 250
11 | Cc1nccc(C2CCC(C(C)C(=O)Nc3ccc(Cl)cc3)CC2)c1C (single isomer, unassigned) [Example 311a, N-(4-chlorophenyl)-2-(4-(2,3-dimethylpyridin-4-yl)cyclohexyl) propanamide] | < 50
12 | Cc1nccc(C2CCC(C(C)C(=O)Nc3ccc(Cl)cc3)CC2)c1C (single isomer, unassigned) [Example 311b, N-(4-chlorophenyl)-2-(4-(2,3-dimethylpyridin-4-yl)cyclohexyl) propanamide] | < 50
13 | Cc1nccc(C2CCC(C(C)C(=O)Nc3ccc(Cl)cc3)CC2)c1C (single isomer, unassigned) [Example 311c, N-(4-chlorophenyl)-2-(4-(2,3-dimethylpyridin-4-yl)cyclohexyl) propanamide] | > 250
14 | Cc1nccc(C2CCC(C(C)C(=O)Nc3ccc(Cl)cc3)CC2)c1C (single isomer, unassigned) [Example 311d, N-(4-chlorophenyl)-2-(4-(2,3-dimethylpyridin-4-yl)cyclohexyl) propanamide] | < 50
15 | Cc1nccc(C2CCC(C(C)C(=O)Nc3ccc(Cl)cc3)CC2)c1C (single isomer, unassigned) [Example 311f, N-(4-chlorophenyl)-2-(4-(2,3-dimethylpyridin-4-yl)cyclohexyl) propanamide] | < 250
16 | CC(C(=O)Nc1ccc(Cl)cc1)C1CCC(c2ccnc(C(F)(F)F)c2)CC1 (single isomer, unassigned) [Example 312a, N-(4-chlorophenyl)-2-(4-(2-(trifluoromethyl)pyridin-4-yl)cyclohexyl) propanamide] | < 250
17 | CC(C(=O)Nc1ccc(Cl)cc1)C1CCC(c2ccnc(C(F)(F)F)c2)CC1 (single isomer, unassigned) [Example 312b, N-(4-chlorophenyl)-2-(4-(2-(trifluoromethyl)pyridin-4-yl)cyclohexyl) propanamide] | < 50
18 | CC(C(=O)Nc1ccc(Cl)cc1)C1CCC(c2ccnc(C(F)(F)F)c2)CC1 (single isomer, unassigned) [Example 312c, N-(4-chlorophenyl)-2-(4-(2-(trifluoromethyl)pyridin-4-yl)cyclohexyl) propanamide] | < 50
19 | CC(C(=O)Nc1ccc(Cl)cc1)C1CCC(c2ccnc(C(F)(F)F)c2)CC1 (single isomer, unassigned) [Example 312d, N-(4-chlorophenyl)-2-(4-(2-(trifluoromethyl)pyridin-4-yl)cyclohexyl) propanamide] | < 250

Second part, the compound after the results:

Row | IC50 [nM] | Structure (SMILES)
20 | < 50 | Cc1cnccc1C1CCC(C(C)C(=O)Nc2ccc(Cl)cc2)CC1 (single isomer, unassigned) [Example 313a, N-(4-chlorophenyl)-2-(4-(3-methylpyridin-4-yl)cyclohexyl) propanamide]
21 | < 50 | Cc1cnccc1C1CCC(C(C)C(=O)Nc2ccc(Cl)cc2)CC1 (single isomer, unassigned) [Example 313b, N-(4-chlorophenyl)-2-(4-(3-methylpyridin-4-yl)cyclohexyl) propanamide]
22 | > 250 | Cc1cnccc1C1CCC(C(C)C(=O)Nc2ccc(Cl)cc2)CC1 (single isomer, unassigned) [Example 313c, N-(4-chlorophenyl)-2-(4-(3-methylpyridin-4-yl)cyclohexyl) propanamide]
23 | < 50 | Cc1cnccc1C1CCC(C(C)C(=O)Nc2ccc(Cl)cc2)CC1 (single isomer, unassigned) [Example 313d, N-(4-chlorophenyl)-2-(4-(3-methylpyridin-4-yl)cyclohexyl) propanamide]
24 | > 250 | Cc1cnccc1C1CCC(C(C)C(=O)Nc2ccc(Cl)cc2)CC1 (single isomer, unassigned) [Example 313e, N-(4-chlorophenyl)-2-(4-(3-methylpyridin-4-yl)cyclohexyl) propanamide]
25 | < 50 | Cc1cnccc1C1CCC(C(C)C(=O)Nc2ccc(Cl)cc2)CC1 (single isomer, unassigned) [Example 313f, N-(4-chlorophenyl)-2-(4-(3-methylpyridin-4-yl)cyclohexyl) propanamide]
26 | < 250 | CC(C(=O)Nc1ccc(Cl)cc1)C1CCC(c2cc(-c3ccc(F)cc3)ncn2)CC1 (single isomer, unassigned) [Example 314b, N-(4-chlorophenyl)-2-(4-(6-(4-fluorophenyl)pyrimidin-4-yl)cyclohexyl) propanamide]
27 | < 250 | CC(=O)Nc1cc(C2CCC(C(C)C(=O)Nc3ccc(Cl)cc3)CC2)ccn1 (single isomer, unassigned) [Example 315a, 2-(4-(2-acetamidopyridin-4-yl)cyclohexyl)-N-(4-chlorophenyl) propanamide]
28 | < 50 | CC(=O)Nc1cc(C2CCC(C(C)C(=O)Nc3ccc(Cl)cc3)CC2)ccn1 (single isomer, unassigned) [Example 315b, 2-(4-(2-acetamidopyridin-4-yl)cyclohexyl)-N-(4-chlorophenyl) propanamide]
29 | > 250 | CC(C(=O)Nc1ccc(Cl)cc1)C1CCC(c2ccnnc2)CC1 (single isomer, unassigned) [Example 316a, N-(4-chlorophenyl)-2-(4-(pyridazin-4-yl)cyclohexyl) propanamide]
30 | > 250 | CC(C(=O)Nc1ccc(Cl)cc1)C1CCC(c2ccnnc2)CC1 (single isomer, unassigned) [Example 316b, N-(4-chlorophenyl)-2-(4-(pyridazin-4-yl)cyclohexyl) propanamide]
31 | > 250 | CC(C(=O)Nc1ccc(Cl)cc1)C1CCC(c2ccnnc2)CC1 (single isomer, unassigned) [Example 316c, N-(4-chlorophenyl)-2-(4-(pyridazin-4-yl)cyclohexyl) propanamide]
32 | > 250 | CC(C(=O)Nc1ccc(Cl)cc1)C1CCC(c2ccnnc2)CC1 (single isomer, unassigned) [Example 316d, N-(4-chlorophenyl)-2-(4-(pyridazin-4-yl)cyclohexyl) propanamide]
33 | < 50 | CC(C(=O)Nc1ccc(Cl)cc1)C1CCC(c2cccc(-c3ccccc3)c2)CC1 (single isomer, unassigned) [Example 317a, 2-(4-([1,1′-biphenyl]-3-yl)cyclohexyl)-N-(4-chlorophenyl) propanamide]
34 | < 50 | CC(C(=O)Nc1ccc(Cl)cc1)C1CCC(c2cccc(-c3ccccc3)c2)CC1 (single isomer, unassigned) [Example 317b, 2-(4-([1,1′-biphenyl]-3-yl)cyclohexyl)-N-(4-chlorophenyl) propanamide]
35 | > 250 | CC(C(=O)Nc1ccc(Cl)cc1)C1CCC(c2cccc(-c3ccccc3)c2)CC1 (single isomer, unassigned) [Example 317c, 2-(4-([1,1′-biphenyl]-3-yl)cyclohexyl)-N-(4-chlorophenyl) propanamide]
